Measured values from BindingDB's records for doi:10.1021/jm970161m (Warner-Lambert, 1997).
Square brackets hold non-standard residues; d marks the D form. Peptide text beside a SMILES is read from it. NMeDip = CN[C@H](C(=O)O)C(c1ccccc1)c1ccccc1; Dip = N[C@H](C(=O)O)C(c1ccccc1)c1ccccc1; NMeI = CC[C@H](C)[C@H](NC)C(=O)O

Target: Endothelin-1 receptor (Oryctolagus cuniculus)
Test: Inhibition of binding to Endothelin A receptor of rabbit renal vascular smooth muscle cells

| IC50 [nM] | Structure (SMILES) |
| --- | --- |
| 700 | CC[C@H](C)[C@H](NC(=O)[C@H]([C@@H](C)CC)N(C)C(=O)[C@H](CC(=O)O)NC(=O)[C@H](CC(C)C)NC(=O)[C@@H](NC(C)=O)C(c1ccccc1)c1ccccc1)C(=O)N[C@@H](Cc1c[nH]c2ccccc12)C(=O)O (Ac-[Dip]LD[NMeI]IW-OH) |
| 4500 | CC[C@H](C)[C@H](NC(=O)[C@H](CC(=O)O)NC(=O)[C@H](CC(C)C)NC(=O)[C@H](C(c1ccccc1)c1ccccc1)N(C)C(C)=O)C(=O)N[C@H](C(=O)N[C@@H](Cc1c[nH]c2ccccc12)C(=O)O)[C@@H](C)CC (Ac-[NMeDip]LDIIW-OH) |
